Assay in all cases: Kinase selectivity, DiscoverX scanMAX Kinase assay panel (% control)
Format in all cases: binding

Assay [1] addresses T1, kinases of the scanMAX Kinase assay panel (Homo sapiens, UniProt O60285).
T1 construct: purchased DiscoverX Co. (contract measurement) scanMAX Kinase assay panel
T1 sequence (O60285 1-661): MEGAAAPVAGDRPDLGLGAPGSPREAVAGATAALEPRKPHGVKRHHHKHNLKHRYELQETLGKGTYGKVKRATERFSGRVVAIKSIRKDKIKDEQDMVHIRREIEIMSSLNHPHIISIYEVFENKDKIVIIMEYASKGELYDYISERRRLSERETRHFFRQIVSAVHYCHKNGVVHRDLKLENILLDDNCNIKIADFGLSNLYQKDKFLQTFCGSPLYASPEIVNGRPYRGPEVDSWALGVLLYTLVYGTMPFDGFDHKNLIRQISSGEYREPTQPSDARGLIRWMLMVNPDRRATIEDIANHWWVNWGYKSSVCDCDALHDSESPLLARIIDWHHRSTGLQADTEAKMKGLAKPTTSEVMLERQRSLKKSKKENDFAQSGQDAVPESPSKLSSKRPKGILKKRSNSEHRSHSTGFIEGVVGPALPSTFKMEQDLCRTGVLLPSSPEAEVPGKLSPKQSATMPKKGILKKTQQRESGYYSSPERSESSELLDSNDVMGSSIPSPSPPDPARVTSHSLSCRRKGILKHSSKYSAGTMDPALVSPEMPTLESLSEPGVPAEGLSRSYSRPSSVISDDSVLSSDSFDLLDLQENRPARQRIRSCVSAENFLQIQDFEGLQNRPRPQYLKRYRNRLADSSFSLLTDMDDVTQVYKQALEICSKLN
Conditions: ARK5; 1 uM. The gist of the method: (§1)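 A 1 uM DMSO solution of compound was applied across the panel kinases, and results were expressed as % control relative to DMSO (100%) and a positive control (0%).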

Assay [2] deals with T2, kinases of the scanMAX Kinase assay panel (Homo sapiens, UniProt P06241).
T2 construct: purchased DiscoverX Co. (contract measurement) scanMAX Kinase assay panel
T2 sequence (P06241 whole entry): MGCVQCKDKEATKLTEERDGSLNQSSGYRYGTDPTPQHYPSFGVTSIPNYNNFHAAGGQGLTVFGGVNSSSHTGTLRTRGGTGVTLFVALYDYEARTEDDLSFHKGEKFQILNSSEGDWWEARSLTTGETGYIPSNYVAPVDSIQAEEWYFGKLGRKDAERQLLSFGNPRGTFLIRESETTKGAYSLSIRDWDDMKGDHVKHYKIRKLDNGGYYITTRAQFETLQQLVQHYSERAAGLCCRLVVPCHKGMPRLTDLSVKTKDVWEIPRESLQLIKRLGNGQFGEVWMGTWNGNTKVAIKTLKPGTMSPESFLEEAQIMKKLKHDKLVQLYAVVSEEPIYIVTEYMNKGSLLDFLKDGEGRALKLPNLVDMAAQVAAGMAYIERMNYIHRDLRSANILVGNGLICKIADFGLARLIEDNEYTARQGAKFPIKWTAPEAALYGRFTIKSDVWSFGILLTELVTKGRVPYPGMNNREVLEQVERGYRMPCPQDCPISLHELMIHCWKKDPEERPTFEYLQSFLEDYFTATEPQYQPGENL
The following applies: FYN; 1 uM. The essentials: as §1

Assay [3] concerns the target T3, kinases of the scanMAX Kinase assay panel (Homo sapiens, UniProt P36888, D835Y).
T3 construct: purchased DiscoverX Co. (contract measurement) scanMAX Kinase assay panel
T3 sequence (P36888 27-993 D835Y): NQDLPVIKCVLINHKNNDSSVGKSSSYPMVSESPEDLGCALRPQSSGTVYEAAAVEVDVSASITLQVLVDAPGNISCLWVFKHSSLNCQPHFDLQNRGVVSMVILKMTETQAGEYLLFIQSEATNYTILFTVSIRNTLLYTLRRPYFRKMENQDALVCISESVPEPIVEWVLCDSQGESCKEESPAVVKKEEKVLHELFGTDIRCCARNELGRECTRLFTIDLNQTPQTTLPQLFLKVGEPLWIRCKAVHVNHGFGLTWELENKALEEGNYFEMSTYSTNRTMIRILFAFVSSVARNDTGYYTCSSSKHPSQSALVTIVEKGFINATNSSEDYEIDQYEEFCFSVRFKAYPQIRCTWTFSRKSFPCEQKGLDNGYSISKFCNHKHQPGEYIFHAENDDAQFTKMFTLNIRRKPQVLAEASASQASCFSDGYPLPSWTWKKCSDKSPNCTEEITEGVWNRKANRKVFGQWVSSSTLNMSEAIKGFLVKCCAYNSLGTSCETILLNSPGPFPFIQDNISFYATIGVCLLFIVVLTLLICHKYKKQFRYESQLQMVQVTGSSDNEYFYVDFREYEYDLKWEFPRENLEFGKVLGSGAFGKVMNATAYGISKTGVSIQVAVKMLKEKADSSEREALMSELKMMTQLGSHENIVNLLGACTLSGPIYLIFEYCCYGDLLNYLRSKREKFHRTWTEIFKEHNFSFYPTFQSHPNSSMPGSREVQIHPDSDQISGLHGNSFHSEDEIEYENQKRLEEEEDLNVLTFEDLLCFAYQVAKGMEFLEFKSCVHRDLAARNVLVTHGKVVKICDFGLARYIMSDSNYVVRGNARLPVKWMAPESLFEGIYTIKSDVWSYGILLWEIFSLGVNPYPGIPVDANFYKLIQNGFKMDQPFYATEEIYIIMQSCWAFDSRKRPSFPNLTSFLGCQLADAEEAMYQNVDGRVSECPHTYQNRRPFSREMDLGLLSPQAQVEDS
The following applies: FLT3(D835Y); 1 uM. The gist of the method: as §1

For assay [4], the target named is T4, kinases of the scanMAX Kinase assay panel (Homo sapiens, UniProt P78362).
T4 construct: purchased DiscoverX Co. (contract measurement) scanMAX Kinase assay panel
T4 sequence (P78362 whole entry): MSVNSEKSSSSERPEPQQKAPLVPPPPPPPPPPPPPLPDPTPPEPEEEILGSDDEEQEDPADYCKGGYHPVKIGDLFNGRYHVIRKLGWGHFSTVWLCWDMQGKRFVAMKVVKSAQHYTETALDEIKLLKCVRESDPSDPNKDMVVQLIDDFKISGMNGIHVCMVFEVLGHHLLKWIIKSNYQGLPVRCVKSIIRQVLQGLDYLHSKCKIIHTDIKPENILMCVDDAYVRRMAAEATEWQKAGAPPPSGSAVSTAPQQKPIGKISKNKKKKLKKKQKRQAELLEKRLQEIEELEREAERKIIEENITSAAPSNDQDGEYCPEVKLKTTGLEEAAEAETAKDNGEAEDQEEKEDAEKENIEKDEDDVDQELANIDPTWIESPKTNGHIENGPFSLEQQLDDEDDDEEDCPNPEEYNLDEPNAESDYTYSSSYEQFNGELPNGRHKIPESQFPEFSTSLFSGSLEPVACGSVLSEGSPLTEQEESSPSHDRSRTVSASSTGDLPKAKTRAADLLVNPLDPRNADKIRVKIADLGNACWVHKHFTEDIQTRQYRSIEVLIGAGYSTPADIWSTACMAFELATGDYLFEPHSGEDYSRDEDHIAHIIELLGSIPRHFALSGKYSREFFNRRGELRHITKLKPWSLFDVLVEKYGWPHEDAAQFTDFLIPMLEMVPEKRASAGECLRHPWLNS
Conditions: kinase SRPK2; 1 uM in DMSO. The gist of the method: as §1

The target in assay [5] is T5, kinases of the scanMAX Kinase assay panel (Homo sapiens, UniProt Q15746).
T5 construct: purchased DiscoverX Co. (contract measurement) scanMAX Kinase assay panel
T5 sequence (Q15746 whole entry): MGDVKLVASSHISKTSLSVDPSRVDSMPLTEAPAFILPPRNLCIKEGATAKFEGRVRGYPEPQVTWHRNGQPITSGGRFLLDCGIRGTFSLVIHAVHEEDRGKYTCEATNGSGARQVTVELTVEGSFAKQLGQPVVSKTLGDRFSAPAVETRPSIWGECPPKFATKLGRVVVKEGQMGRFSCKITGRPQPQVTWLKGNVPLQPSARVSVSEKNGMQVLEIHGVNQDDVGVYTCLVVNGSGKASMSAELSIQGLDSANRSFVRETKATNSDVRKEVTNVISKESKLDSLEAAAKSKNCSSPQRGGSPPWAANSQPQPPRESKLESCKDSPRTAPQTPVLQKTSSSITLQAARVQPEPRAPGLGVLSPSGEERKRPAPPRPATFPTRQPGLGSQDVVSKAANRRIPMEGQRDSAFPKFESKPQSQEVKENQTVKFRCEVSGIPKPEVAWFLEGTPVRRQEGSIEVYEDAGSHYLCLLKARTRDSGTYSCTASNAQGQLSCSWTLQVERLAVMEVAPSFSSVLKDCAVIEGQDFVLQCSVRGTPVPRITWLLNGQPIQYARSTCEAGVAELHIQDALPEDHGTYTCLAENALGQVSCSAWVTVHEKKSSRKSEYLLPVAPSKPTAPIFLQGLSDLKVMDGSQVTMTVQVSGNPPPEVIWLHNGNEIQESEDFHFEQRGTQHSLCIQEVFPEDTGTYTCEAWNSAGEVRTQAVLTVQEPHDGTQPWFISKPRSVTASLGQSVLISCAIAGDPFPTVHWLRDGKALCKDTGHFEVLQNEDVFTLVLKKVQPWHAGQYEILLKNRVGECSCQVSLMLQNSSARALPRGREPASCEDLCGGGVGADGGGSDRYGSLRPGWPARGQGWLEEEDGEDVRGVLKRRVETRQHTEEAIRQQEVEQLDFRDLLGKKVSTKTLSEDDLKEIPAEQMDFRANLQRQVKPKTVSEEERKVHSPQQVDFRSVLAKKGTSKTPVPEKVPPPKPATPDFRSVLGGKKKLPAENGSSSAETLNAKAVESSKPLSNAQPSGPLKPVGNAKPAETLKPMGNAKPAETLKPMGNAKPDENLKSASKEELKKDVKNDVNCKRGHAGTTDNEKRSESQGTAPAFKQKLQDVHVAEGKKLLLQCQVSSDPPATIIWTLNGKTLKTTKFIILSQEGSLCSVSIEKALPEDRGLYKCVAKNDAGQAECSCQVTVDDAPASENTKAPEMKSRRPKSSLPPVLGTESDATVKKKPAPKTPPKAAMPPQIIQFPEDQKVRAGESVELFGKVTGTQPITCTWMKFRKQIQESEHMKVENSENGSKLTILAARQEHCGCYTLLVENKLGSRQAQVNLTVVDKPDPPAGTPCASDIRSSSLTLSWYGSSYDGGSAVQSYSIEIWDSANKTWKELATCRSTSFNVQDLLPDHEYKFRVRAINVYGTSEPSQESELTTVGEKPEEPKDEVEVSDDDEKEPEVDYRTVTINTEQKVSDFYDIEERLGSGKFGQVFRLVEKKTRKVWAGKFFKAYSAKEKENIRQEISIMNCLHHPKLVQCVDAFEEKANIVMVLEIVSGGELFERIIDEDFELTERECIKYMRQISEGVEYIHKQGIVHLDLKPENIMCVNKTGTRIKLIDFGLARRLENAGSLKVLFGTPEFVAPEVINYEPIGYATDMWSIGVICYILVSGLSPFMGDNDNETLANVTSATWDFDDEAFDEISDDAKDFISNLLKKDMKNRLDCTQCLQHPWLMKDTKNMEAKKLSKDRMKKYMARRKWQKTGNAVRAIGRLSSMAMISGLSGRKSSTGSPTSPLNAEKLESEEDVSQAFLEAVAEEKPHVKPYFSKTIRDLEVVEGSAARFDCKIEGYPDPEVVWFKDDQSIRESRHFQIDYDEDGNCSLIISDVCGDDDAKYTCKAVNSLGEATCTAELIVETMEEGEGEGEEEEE
The following applies: MYLK; 1 uM. The gist of the method: as §1

Assay [6] addresses T6, kinases of the scanMAX Kinase assay panel (Homo sapiens, UniProt Q52WX2).
T6 construct: purchased DiscoverX Co. (contract measurement) scanMAX Kinase assay panel
The following applies: kinase SBK1; 1 uM in DMSO. The gist of the method: as §1

In assay [7] the target is T7, kinases of the scanMAX Kinase assay panel (Homo sapiens, UniProt Q96BR1).
T7 construct: purchased DiscoverX Co. (contract measurement) scanMAX Kinase assay panel
T7 sequence (Q96BR1 1-496): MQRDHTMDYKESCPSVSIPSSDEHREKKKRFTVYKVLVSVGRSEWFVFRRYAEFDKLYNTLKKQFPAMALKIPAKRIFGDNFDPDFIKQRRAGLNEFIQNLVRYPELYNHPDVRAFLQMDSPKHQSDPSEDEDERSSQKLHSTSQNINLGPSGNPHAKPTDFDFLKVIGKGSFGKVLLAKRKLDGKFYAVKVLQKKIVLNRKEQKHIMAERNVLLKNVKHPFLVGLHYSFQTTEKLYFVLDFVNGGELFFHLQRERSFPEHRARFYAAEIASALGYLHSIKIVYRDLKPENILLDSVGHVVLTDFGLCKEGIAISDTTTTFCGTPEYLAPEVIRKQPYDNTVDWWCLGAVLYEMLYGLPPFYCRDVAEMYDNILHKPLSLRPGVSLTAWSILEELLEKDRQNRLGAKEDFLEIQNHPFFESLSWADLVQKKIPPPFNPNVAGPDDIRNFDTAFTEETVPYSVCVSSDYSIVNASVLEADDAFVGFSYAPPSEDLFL
Conditions: kinase SGK3; 1 uM in DMSO. The gist of the method: as §1

In assay [8] the target is T8, kinases of the scanMAX Kinase assay panel (Homo sapiens, UniProt Q9P1W9).
T8 construct: purchased DiscoverX Co. (contract measurement) scanMAX Kinase assay panel
T8 sequence (Q9P1W9 whole entry): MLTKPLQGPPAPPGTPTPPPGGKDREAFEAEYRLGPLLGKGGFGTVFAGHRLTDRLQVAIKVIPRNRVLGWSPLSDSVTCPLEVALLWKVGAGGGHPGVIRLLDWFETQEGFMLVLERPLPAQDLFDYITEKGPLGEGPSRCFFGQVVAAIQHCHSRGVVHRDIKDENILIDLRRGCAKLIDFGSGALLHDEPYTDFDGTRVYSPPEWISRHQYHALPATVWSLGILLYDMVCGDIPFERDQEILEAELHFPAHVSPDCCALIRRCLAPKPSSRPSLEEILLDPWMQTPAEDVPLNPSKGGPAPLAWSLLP
The following applies: PIM2; 1 uM. The essentials: as §1

T6 sequence (Q52WX2 whole entry): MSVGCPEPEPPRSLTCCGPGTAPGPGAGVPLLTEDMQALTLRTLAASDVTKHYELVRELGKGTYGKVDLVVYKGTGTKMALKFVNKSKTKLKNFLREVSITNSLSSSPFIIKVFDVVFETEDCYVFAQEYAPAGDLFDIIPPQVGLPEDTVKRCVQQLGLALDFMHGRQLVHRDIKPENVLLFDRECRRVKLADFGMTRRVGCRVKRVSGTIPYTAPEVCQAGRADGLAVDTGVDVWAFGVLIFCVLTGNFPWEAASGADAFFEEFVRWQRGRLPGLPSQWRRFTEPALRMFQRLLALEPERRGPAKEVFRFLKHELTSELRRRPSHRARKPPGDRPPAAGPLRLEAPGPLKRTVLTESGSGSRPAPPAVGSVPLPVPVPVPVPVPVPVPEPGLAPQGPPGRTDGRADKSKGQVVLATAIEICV

`CNc1nc(Nc2ccc(C(=O)N3CCOCC3)cc2OC)nc2[nH]cc(C#N)c12` [Example 1, 2-((2-methoxy-4-(morpholine-4-carbonyl)phenyl)amino)-4-(methylamino)-7H-pyrrolo[2,3-d]pyrimidine-5-carbonitrile]: the remaining binding at 1 µM in assay [1] was determined as 88%; in assay [2], 100%; in assay [3] it was 82%; in assay [4], 100%; in assay [5] it was 0%; in assay [6] it was 72%. Further, the remaining binding at 1 µM stood at 63% in assay [7] and 78% in assay [8].

As to `CC1(Nc2nc(Nc3cnn([C@H]4CCN(C5COC5)C[C@@H]4F)c3Cl)nc3[nH]cc(C#N)c23)CC1` [Example 52, 2-((5-chloro-1-((3S,4S)-3-fluoro-1-(oxetane-3-yl)piperidine-4-yl)-1H-pyrazole-4-yl)amino)((1-methylcyclopropyl)amino)-7H-pyrrolo[2,3-d]pyrimidine-5-carbonitrile], the remaining binding at 1 µM is 2.5% in assay [1]; 19% in assay [2]; 0% in assay [3]; 58% in assay [4]; 0.55% in assay [5]; 21% in assay [6]. The remaining binding at 1 µM in assay [7] was found to be 70%; in assay [8] it was 63%.

As for `CCNc1nc(Nc2ccc(C(=O)N3CCC(N4CCOCC4)CC3)cc2OC)nc2[nH]cc(C(F)(F)F)c12` [Example 104, (4-((4-(ethylamino)-5-(trifluoromethyl)-7H-pyrrolo[2,3-d]pyrimidine-2-yl)amino)-3-methoxyphenyl)(4-morpholinopiperidine-1-yl)methanone], the remaining binding at 1 µM in assay [1] is 99%; in assay [2], 100%; in assay [3], 14%; in assay [4] it was 74%; in assay [5], 0.95%; in assay [6], 100%. For the same compound, the remaining binding at 1 µM in assay [7] came to 87%; in assay [8], 100%.
